Results on eight compounds are retold here after patent US7550599B2, “Water compatible sterically hindered alkoxyamines and hydroxy substituted alkoxyamines” (Ciba Specialty Chemicals Corporation, priority 2003, dated 2009).

Series [1] is described as follows: Ink jet media light fastness, cyan, Example 38. Conditions: 100% print density; office fluorescent lighting; total stabilizer 650-700 mg/m2, mixtures 1:1 by weight. On the procedure:
(§1) A resin-coated paper impregnated with inorganic adsorbent particles (Konica QP Photoglossy ink jet paper, Konica Corp.) is purchased. On the ink-receiving layer, a 0.8 wt % methanol solution of the instant compounds is applied in an amount to achieve 650-700 mg/m^2. The paper is allowed to dry under ambient temperature and pressure for 24 hours. Separately, test patterns (cyan and yellow) are printed on the treated sheets using a Hewlett Packard DeskJet 970 Cxi printer at 100% print density. The obtained prints are left to dry at ambient temperature and pressure for 24 hours. Color densities and CIEL*a*b coordinates before and after exposure are measured using X-Rite 938 Spectrodensitometer. Exposures are carried out using normal office fluorescent lighting.

Series [2] is described as follows: Ink jet media light fastness, yellow, Example 38. The following applies: 100% print density; office fluorescent lighting; total stabilizer 650-700 mg/m2, mixtures 1:1 by weight. On the procedure:
as §1

Series [3] can be described thus: Solubility in 50% butyl carbitol / 50% water. The series is classed as physicochemical. Conditions: 50% butyl carbitol / 50% water by weight; stirred 30 minutes. On the procedure: The solubility of the instant compounds is evaluated in polar solvent systems. A solution of 50% butyl carbitol by weight and 50% water by weight is prepared. The instant compounds are added to this solution, stirred for 30 minutes, and sampled for analysis. Samples containing bis(1-octyloxy-2,2,6,6-tetramethylpiperidin-4-yl)sebacate and 4-hydroxy-1-(2-hydroxy-2-methylpropoxy)-2,2,6,6-tetramethylpiperidine are filtered to remove any undissolved residue and all samples are analyzed by high pressure liquid chromatography or gas chromatography.

Series [4] is described as follows: Solubility in 50% butyl cellusolve / 50% water. The class given is physicochemical. Conditions: 50% butyl cellusolve / 50% water by weight; stirred 30 minutes. On the procedure:
The solubility of the instant compounds is evaluated in polar solvent systems. A solution of 50% butyl cellusolve by weight and 50% water by weight is prepared. The instant compounds are added to this solution stirred for 30 minutes, and sampled for analysis. Samples containing bis(1-octyloxy-2,2,6,6-tetramethylpiperidin-4-yl)sebacate and 4-hydroxy-1-(2-hydroxy-2-methylpropoxy)-2,2,6,6-tetramethylpiperidine are filtered to remove any undissolved residue and all samples are analyzed by high pressure liquid chromatography or gas chromatography.

The nature of series [5]: Dye fading of shampoo under fluorescent light, Example 49. The following applies: Clairol Herbal Essences shampoo; fluorescent light aging; loading 0.30 wt %. On the procedure:
(§2) The instant compounds are added to a commercial shampoo formulation and are evaluated for their ability to reduce the amount of dye fading when the samples are exposed to fluorescent lighting. The instant compounds (0.36 g) are dissolved in 5 mL of methanol which is then added to 120 g of shampoo (Clairol^R Herbal Essences Shampoo) with agitation. A benzotriazole UV absorber, 2-(2-hydroxy-3-tert-butyl-5-methylphenyl)-2H-benzotriazole-5-sulfonic acid, sodium salt (UVA), is optionally added to the shampoo formulation. The stabilized shampoo formulation is agitated for 15 minutes and put into 20 mL glass scintillation vials. These formulations are weathered under fluorescent light aging at ambient temperature. The CIEL*a*b coordinates before and after exposure are measured using X-Rite 938 Spectrodensitometer. Color change is expressed as Delta E (DE).

A short description of series [6]: Dye fading of shampoo under fluorescent light, Example 48. The following applies: Suave shampoo; fluorescent light aging, ambient temperature; loading 0.30 wt %. On the procedure:
as §2, with “(Suave^R Natural^R, Fresh Mountain Strawberry)” for “(Clairol^R Herbal Essences Shampoo)”, “formulation at an equivalent concentration.” for “formulation.”

Series [7] can be described thus: Ink jet media light fastness, cyan, Example 31. The following applies: 100% print density, office fluorescent lighting. On the procedure:
as §1, with “mg/m^2, unless otherwise stated.” for “mg/m^2.”, “(cyan)” for “(cyan and yellow)”

Series [8] in a line: Ink jet media light fastness, magenta, Example 32. The following applies: 100% print density, office fluorescent lighting. On the procedure:
as §1, with “mg/m^2, unless otherwise stated.” for “mg/m^2.”, “(magenta)” for “(cyan and yellow)”

A short description of series [9]: Ink jet media light fastness, cyan, Example 34. Conditions: 50% print density, office fluorescent lighting. On the procedure: as §1, with “mg/m^2, unless otherwise stated.” for “mg/m^2.”, “(cyan)” for “(cyan and yellow)”, “50%” for “100%”
A short description of series [10]: Ink jet media light fastness, magenta, Example 35. Conditions: 50% print density, office fluorescent lighting. On the procedure: as §1, with “mg/m^2, unless otherwise stated.” for “mg/m^2.”, “(magenta)” for “(cyan and yellow)”, “50%” for “100%”
The nature of series [11]: Dye fading of mouthwash under fluorescent light, Example 50. Conditions: Scope Original Mint mouthwash; fluorescent light aging; loading 0.30 wt %. On the procedure:
as §2, with “mouthwash” for “shampoo”, “mouthwash (Scope^R Original Mint)” for “shampoo (Clairol^R Herbal Essences Shampoo)”

Series [12] is described as follows: Ink jet media light fastness, yellow, Example 33. The following applies: 50% print density as printed, office fluorescent lighting, 650-700 mg/m2. On the procedure:
as §1, with “mg/m^2, unless stated otherwise.” for “mg/m^2.”, “(yellow)” for “(cyan and yellow)”, “50%” for “100%”

The nature of series [13]: Ink jet media light fastness, yellow, Example 36. The following applies: 50% print density, office fluorescent lighting, 650-700 mg/m2. On the procedure: as §1, with “mg/m^2, unless stated otherwise.” for “mg/m^2.”, “(yellow)” for “(cyan and yellow)”, “50%” for “100%”

Turning to `Cl.ON(Cc1ccccc1)Cc1ccccc1` [Compound A, N,N-dibenzylhydroxylamine hydrochloride, reference compound], in series [1], the “DE for cyan after 3 months” value is recorded as 11.96. For the same compound, the “DE for yellow after 3 months” value in [2] turned out to be 5.31.

Consider `CC(NC1CC(C)(C)N(OCC(C)(C)O)C(C)(C)C1)C(=O)[O-].[K+]` (centres unmarked) [Example 5], for which the “Solubility (% by weight)” value in series [3] is listed as “≧15 % by weight”; in series [4], “≧18 % by weight”. In addition, in [5], the “DE after 2 weeks” value came out at 1.55.

Regarding `CN(C)CCNC1CC(C)(C)N(OCC(C)(C)O)C(C)(C)C1` [Example 6], the “DE after 2 weeks” value in series [6] was determined as 7.53.

Consider `CC(C)(O)CON1C(C)(C)CC(N)CC1(C)C` [Example 7], for which the “DE for cyan after 4 weeks” value came to 4.27 in series [7] (650-700 mg/m2), 5.85 in [9] (650-700 mg/m2), 4.95 in [9] ((2x) 1300 to 1400 mg/m2) and 4.34 in series [9] ((3x) 1950 to 2100 mg/m2). In addition, the “DE for magenta after 4 weeks” value in [8] (650-700 mg/m2) came to 20.78; in series [8] ((2x) 1300 to 1400 mg/m2) it was 19.52; in series [8] ((3x) 1950 to 2100 mg/m2), 12.99; in series [10] (650-700 mg/m2), 16.62; in series [10] ((2x) 1300 to 1400 mg/m2), 14.14; in [10] ((3x) 1950 to 2100 mg/m2) it was 8.60. Moreover, the “DE after 2 weeks” value in series [5] amounted to 3.96.

Take `CC(C)(O)CON1C(C)(C)CC(OC(=O)CCC(=O)O)CC1(C)C` [Example 17]: the “DE after 2 weeks” value in series [6] stood at 8.91.

Consider `CC(C)(O)CON1C(C)(C)CC(OC(=O)C(C)(C)O)CC1(C)C` [Example 18], for which the “DE after 2 weeks” value in series [11] is reported as 5.11.

Take `CC(C)(O)CON1C(C)(C)CC(NCCO)CC1(C)C.Cl` [Example 22]: the “DE for cyan after 4 weeks” value was found to be 5.26 in [7] (650-700 mg/m2), 4.62 in series [7] ((2x) 1300 to 1400 mg/m2), 5.98 in [9] (650-700 mg/m2) and 5.11 in [9] ((2x) 1300 to 1400 mg/m2). Besides, the “DE for magenta after 4 weeks” value in [8] (650-700 mg/m2) is recorded as 25.20; in [8] ((2x) 1300 to 1400 mg/m2), 21.96. For the same compound, the figures for the “DE for yellow after 4 weeks” value in series [12] and in [13] were 5.53 and 3.15, respectively.

Take `CC(=O)NCC(=O)NC1CC(C)(C)N(OCC(C)(C)O)C(C)(C)C1` [Example 37]: the “DE for cyan after 3 months” value in series [1] was 11.39. Besides, the “DE for yellow after 3 months” value in series [2] was 2.96.
